In patent US11833181B1, “Method of treating or preventing Alzheimer's Disease” (KING FAISAL UNIVERSITY, priority 2023, dated 2023):
Several values for one entry are separate records, joined by “and”; a condition that tells them apart may be missing. Equal values may be shown once. Marks after values point to notes of the source that are not given here.

How the values were obtained:
Format in all cases: in vivo, rat
[1] = system: aluminum chloride (AlCl3)-induced Alzheimer-like disease in rats; assay: Lipid peroxidation (TBARS) in brain homogenate of AlCl3-induced Alzheimer-like rats
Method: (§1) The neuroprotective effects of silymarin (SM) were tested on the hippocampal tissues of aluminum chloride (AlCl3)-induced Alzheimer's-like disease in rats using biochemical, histological, and immune-histochemical examination. For this experiment, 42 mature male albino rats were divided equally into 6 groups each of 7 rats as follows: • Group I: Rats injected with distilled water and served as the control group (non-induced); • Group II: Rats injected with AlCl3; • Group III: Rats injected with AlCl3, then silymarin; • Group IV: Rats injected with AlCl3, then collagen; • Group V: Rats injected with AlCl3 then silymarin nanoparticles; • Group VI: Rats injected with AlCl3 then silymarin+collagen nanoparticles.
(§2) All of the experimental animals were sacrificed, and their brains dissected to take out the cortex section. The homogenates (10%, w/v) were then centrifuged at 10,000 rpm for 15 min and the supernatants were conserved at […] for subsequent biochemical evaluations to determine, oxidative stress markers, catalase activity, superoxide dismutase, glutathione peroxidase, glutathione reductase; and lipid peroxidation.
Lipid peroxidation was determined by measuring the thiobarbituric reactive substances (TBARS) in the homogenate where: Thiobarbituric acid+malondialdehyde Colored product+2 H2O Malondialdehyde (MDA), a major secondary product of lipid peroxidation (LPO) reacts with thiobarbituric acid (TBA), producing pink color adducts on heating. This reaction has been widely adopted as a sensitive method for lipid peroxidation that represents a major indicator of oxidative stress.
In four test tubes, homogenate supernatant (test) or water (blank) was added to 1 ml TCA and mixed well, then the solutions were centrifuged at 3000 rpm for 10 min. One milliliter of the supernatant of each of the previous four test tubes was added to 0.5 ml of TBA and heated for 30 min at 90° C. then cooled. The absorbance of samples (As) was read at 532 nm against blank.
The concentration of proteins was estimated. The levels of TBARS were calculated with the following equations:
For tissue homogenate: As: TBARS level (μmol/g protein)=(0.156×total protein×1000)×10, where; • As: absorbance of the sample (homogenate); • 0.156: molar extinction coefficient (μM−1 cm^−1); and • 10: the sample dilution factor.
(§3) Male albino rats were pretreated with one dose of the nano-formulation of 200 mg/kg/day for 15 days orally. The animals were then evaluated for neurobehavioral, infarct analysis, biochemical, histopathological studies.

[2] = system: aluminum chloride (AlCl3)-induced Alzheimer-like disease in rats; assay: Catalase activity in brain homogenate of AlCl3-induced Alzheimer-like rats
Method: as §1, §2
Catalase reacts with a known quantity of H2O2. The reaction is stopped after exactly one minute with a catalase inhibitor. In the presence of peroxidase (HRP), remaining H2O2 reacts with 3,5-Dichloro-2-hydroxybenzene sulfonic acid (DHBS) and 4-aminophenazone (AAP) to form a chromophore with a color intensity inversely proportional to the amount of catalase in the original sample.
The reagents included: • buffer (Phosphate buffer, pH 7.0 Detergent)−100 mM/L; • H2O2 (substrate and standard) (Dilute 1000 times)−500 mM/L • Chromogen—Inhibitor— • Enzyme: Peroxidase 4-Aminoantipyrine Preservative->2000/L 2 mM/L.
as §3

[3] = system: aluminum chloride (AlCl3)-induced Alzheimer-like disease in rats; assay: Nitric oxide (nitrite) level in brain homogenate of AlCl3-induced Alzheimer-like rats
Method: as §1, §2
Nitric oxide was rapidly oxidized to nitrite (NO^2−) and/or nitrate (NO^3−) by oxygen. In this method, nitrite was first treated with a diazotizing reagent, e.g., sulfanilamide (SA), in acidic media to form a transient diazonium salt. This intermediate was then allowed to react with a coupling reagent, N-naphthyl-ethylene diamine, to form a stable azo compound. The intense purple color of the product allows nitrite assay with high sensitivity and can be used to measure nitrite concentration as low as […]. The absorbance of this adduct at 540 nm is linearly proportional to the nitrite concentration in the sample.
The reagents included sulphanilamide (10 mM), N-(1-naphthyl) ethylenediamine, (1 mM), and standard sodium nitrite solution (100 μM). To four test tubes, each containing 1 ml sulphanilamide, 100 μl of either homogenate (test), standard solution (standard), or distilled water (blank) were added. The four test tubes were incubated for 5 minutes at room temperature. Then, 100 μl N-(1-naphthyl) ethylene diamine was added to all tubes and allowed to stand for 20 min at room temperature. The absorbance of the test and standard was read at 540 nm against blank.
The homogenate NO level was calculated according to the following equation: NO level (μM/g protein)=[As Ast×Standard concentration×10]/total proteins, where; • As: Absorbance of the sample (homogenate); • Ast: Absorbance of standard; and • 10: The sample dilution factor.
as §3

[4] = system: aluminum chloride (AlCl3)-induced Alzheimer-like disease in rats; assay: Reduced glutathione (GSH) level in brain homogenate of AlCl3-induced Alzheimer-like rats
Method: as §1, §2
To determine homogenate reduced glutathione (GSH) level, GSH was allowed to react with 5,5′-dithio-bis-2-nitrobenzoic acid (DTNB) (equation below), known as Ellman's reagent, generating a yellow-colored 2-nitro-5-thiobenzoic acid product. DTNB+2 GSH Glutathione reductase 2-nitro-5-thiobenzoic acid
The reagents used included sulfosalicylic acid, 4%; phosphate buffer, 0.1 M, pH 7.4 and pH 8; DTNB, 10 mM, 19.8 mg in 10 ml phosphate buffer pH 8, and standard GSH, and 1 mg/dl (32.54 μM) in phosphate buffer pH 7.4.
Proteins in 0.1 ml of either homogenate supernatants (samples) were precipitated using 0.1 ml of 4% sulfosalicylic acid. The samples were kept at 4° C. for at least 1 hour and then subjected to centrifugation at 3000 rpm for 10 min at 4° C. The assay mixture contained 0.1 ml supernatant, 2.7 ml phosphate buffer (0.1 M, pH 7.4), and 0.2 ml DTNB in a total volume of 3 ml.
The standard and blank experiment was carried out as above using 0.1 ml of standard GSH and distilled water, respectively instead of samples. The absorbance of the developed yellow color of samples and standard was read against blank at 412 nm.
The tissue contents of GSH were estimated using the following equation; GSH level (μmol/g protein)=[As Ast×Standard concentration×10]/total proteins, • where; • As: Absorbance of the sample (homogenate); • Ast: Absorbance of standard; and • 10: The tissue dilution.
as §3

[5] = Table 1, single animal samples (code = group G + animal H), brain homogenate supernatant
[6] = Table 2, value ± spread per treatment group, Example 5, nano-formulation 200 mg/kg/day for 15 days orally

[Cl][Al]([Cl])[Cl] [AlCl3, aluminum chloride]
TBARS [1, 5]: 1.54 μmol/g protein and 1.48 μmol/g protein
TBARS [1, 6]: 0.68 ± 0.04^bc
Catalase [2, 5]: 54 U/g and 65 U/g
Catalase [2, 6]: 84.33 ± 17.27^bc
NO [3, 5]: 61.67 μM/g protein and 65.00 μM/g protein
NO [3, 6]: 36.18 ± 0.58^bc
GSH [4, 5]: 12.06 μmol/g protein and 14.51 μmol/g protein
GSH [4, 6]: 19.03 ± 3.89^bc

collagen
TBARS [1, 5]: 0.74 μmol/g protein and 0.60 μmol/g protein
TBARS [1, 6]: 0.71 ± 0.01^bc
Catalase [2, 5]: 111 U/g and 52 U/g
Catalase [2, 6]: 62.33 ± 1.45^b
NO [3, 5]: 37.22 μM/g protein and 36.11 μM/g protein
NO [3, 6]: 34.91 ± 0.83^bc
GSH [4, 5]: 24.78 μmol/g protein and 11.61 μmol/g protein
GSH [4, 6]: 14.44 ± 0.58^b
